Experimental data: patent US11726079B2, “Lighting systems and methods of using lighting systems for in vitro potency assay for Photofrin” (Concordia Laboratories, Inc., priority 2012, dated 2023)

Tested on: A549 human lung carcinoma cells
Test: Chemotherapeutic drugs as possible positive control, 24 hour incubation with XTT endpoint
Assay type: cell-based
Settings: data not shown
Method: The broadly active chemotherapeutics drugs SN-38 (20 μM top dose), the active metabolite of irinotecan, carboplatin (7.5 mM top dose), and paclitaxel (20 μM top dose) are tested to determine if sufficient cell killing can be achieved under the anticipated assay conditions, i.e., 24 hour incubation with XTT endpoint.

Q: For `CC(=O)O[C@H]1C(=O)[C@@]2(C)[C@H]([C@H](OC(=O)c3ccccc3)[C@]3(O)C[C@H](OC(=O)[C@H](O)[C@@H](NC(=O)c4ccccc4)c4ccccc4)C(C)=C1C3(C)C)[C@]1(OC(C)=O)CO[C@@H]1C[C@@H]2O` [paclitaxel], which cell killing (20 μM top dose) is on record?
A: None of the drugs produce sufficient cell killing

Q: For `N.N.O=C([O-])C1(C(=O)[O-])CCC1.[Pt+2]` [carboplatin], which cell killing (7.5 mM top dose) is on record?
A: None of the drugs produce sufficient cell killing

Q: For `CCc1c2c(nc3ccc(O)cc13)-c1cc3c(c(=O)n1C2)COC(=O)[C@]3(O)CC` [SN-38], which cell killing (20 μM top dose) is on record?
A: None of the drugs produce sufficient cell killing
